From patent publication EP4473972A1, “COMBINATIONS COMPRISING AN ATR INHIBITOR WITH SYNERGISTIC EFFECT AGAINST GLIOMAS” (Eberhard-Karls-Universität Tübingen, priority 2023, dated 2024)

Assays:
[1] = system: LNZ308 cells; test: RNA-Sequencing (RNAseq); assay type: cell-based, human
Description: (§1) For this, the inventors seeded the cells on day one and treated them on the next day with IC50 concentrations of AZD6738 for up to 72 h. They extracted the RNA using the Qiagen RNeasy Mini kit (Qiagen, Venlo, NL) according to manufacturer's protocol. For RNA sequencing, the inventors enriched the mRNA fraction using polyA capture from 200 ng of total RNA using the NEBNext Poly(A) mRNA Magnetic Isolation Module (NEB). They used the NEB Next Ultra II Directional RNA Library Prep Kit for Illumina (NEB) to prepare mRNA libraries according to manufacturer's instructions. The libraries were sequenced as paired-end 50 bp reads on an Illumina NovaSeq6000 (Illumina) with a sequencing depth of approximately 25 million clusters per sample. The inventors performed RNA raw data QC and processing using megSAP (version 0.2-135-gd002274) combined with ngs-bits package (version 2019_11-42-gflb98e63). To align the reads to the GRCh38 they used STAR v2.7.3a and alignment quality was analyzed using ngs-bits. Normalized read counts for all genes were obtained using Subread (v2.0.0) and edgeR (v3.26.6). The inventors used the R package "DESeq2" for further analyses. They defined differentially expressed genes (DEGs) as log2 fold-change (LFC) above or below |1| and p-adjusted < 0.01 as defined by Wald statistics. The inventors analyzed the resulting hits for KEGG pathway association using gProfiler. […] They re-aligned significant LRT genes with DEG results and analyzed them with gProfiler.

[2] = system: LN229 cells; test: RNA-Sequencing (RNAseq); assay type: cell-based, human
Description: as §1

[3] = system: LNZ308 cells; test: DigiWest Multiplex Protein Analysis; assay type: cell-based, human; conditions: LNZ308, 72 h
Description: (§2) After 72 h of AZD6738 treatment, the inventors detached and counted the cells and subsequently snap froze them in liquid nitrogen. For protein preparation, they kept the cells on ice and added 20-30 µL of lysis buffer (LDS Lysis Buffer (Life Technologies, Carlsbad, CA, USA), supplemented with reducing agent (Thermo Fisher Scientific, Waltham, MA, USA) and protease- (Roche Diagnostics GmbH, Mannheim, Germany) and phosphatase-inhibitor (Roche)). Proteins were denatured by heating to 95°C for 10 min before the lysates were transferred to QiaShredder Eppendorf tubes (Eppendorf, Hamburg, Germany). After centrifugation (16,000g, 5 min, RT), eluates were stored at -80°C until further use. Protein quantification was performed using in-gel staining. 1 µL of each original lysate was diluted 1:10 (v/v) in lysis buffer. The respective aliquots were denatured for 10 mins at 70°C and 10 µL were run in a NuPAGE 4-12% Bis-Tris precast gel (Thermo Fisher Scientific) according to the manufacturer's instructions. The gel was washed with water and proteins were stained with BlueBandit (VWR, Darmstadt, Germany) for 1 h. The gel was de-stained over night with ddH2O before detection on a LI-COR (LI-COR, Bad Homburg, Germany) instrument. Analysis and protein quantification was performed using ImageStudio.
(§3) The DigiWest analysis was performed as described in the art. In brief, the inventors loaded 10 µg of cellular protein on an SDS-polyacrylamide gel and size-separated them using the commercial NuPAGE system (Life Technologies). Size-separated proteins were blotted onto a PVDF membrane and biotinylated on the membrane using NHS-PEG12-Biotin (50 µM) in PBST for 1 h. After drying of the membrane, the samples lanes were cut into 96 strips of 0.5 mm width using an automated cutting plotter (Silhouette America, West Orem, UT, USA) each corresponding to a defined molecular weight fraction. Each of the strips was placed in one well of a 96-well plate and 10 µl elution buffer (8 M urea, 1% Triton-X100 in 100 mM Tris-HCl pH 9.5) was added. The eluted proteins were diluted with 90 µl of dilution buffer (5% BSA in PBS, 0.02% sodium azide, 0.05% Tween-20) and each of the protein fractions was incubated with 1 distinct magnetic color-coded bead population (Luminex, Austin, USA) coated with neutravidin. The biotinylated proteins bind to the neutravidin beads such that each bead color represents proteins of one specific molecular weight fraction. All 96 protein loaded bead populations were mixed resulting in reconstitution of the original lane. Such a beadmix was sufficient for about 150 individual antibody incubations. Aliquots of the DigiWest bead-mixes (about 1/200th per well) were added to 96 well plates containing 50 µl assay buffer (Blocking Reagent for ELISA (Roche, Rotkreuz, Switzerland) supplemented with 0.2% milk powder, 0.05% Tween-20 and 0.02% sodium azide) and different diluted antibodies were added to the wells. After overnight incubation at 15°C in a shaker, the bead-mixes were washed twice with PBST and species-specific PE-labelled (Phycoerythrin) secondary antibodies (Dianova, Hamburg, Germany) were added and incubated for 1 hour at 23°C. Beads were washed twice prior to readout on a Luminex FlexMAP 3D.
(§4) For quantification of the antibody specific signals, we used the DigiWest Analyzer software; it automatically identifies peaks of appropriate molecular weight and calculates the peak area. Signal intensity was normalized to the total amount of protein loaded onto one lane. The software package MEV 4.9.0 was used for statistical analysis along with Graph Pad Prism (Version 9.0.0). For all statistical tests, a p-value <0.05 was considered significant.

[4] = system: LN229 cells; test: DigiWest Multiplex Protein Analysis; assay type: cell-based, human; conditions: LN229, 72 h
Description: as §2, §3, §4

[5] = system: human and murine cell lines; test: Anti-glioma activity in vitro (Figure 1 b); assay type: cell-based
Description: The inventors seeded 5,000 or 10,000 cells, respectively, on day one, treated the next day in serum-free medium and incubated for up to 72 h. Subsequently, they measured cell viability using CellTiterBlue reagent (Promega, Madison, WI, US) according to manufacturer's instructions with a GloMax (Promega, Madison, Wl, US). The inventors normalized measurements to untreated cells. Cells were seeded the day before treatment. The inventors treated the cells in the indicated concentrations in serum-free medium for 24 h after which they changed the medium back to medium containing FCS, followed by a 7 to 21 day incubation time. The inventors used crystal violet (0.5% w/v) to stain colonies and analyzed the area coverage using the ImageJ software Plugln ColonyArea. Measurements were normalized to respective vehicle control wells.

[6] = system: LN229 and LNZ308 cells; test: DigiWest Multiplex Protein Analysis, across both cell lines; assay type: cell-based, human; conditions: 72 h
Description: as §2
as §3, with “Such a beadmix was sufficient for about 150 individual antibody incubations. Aliquots of the DigiWest bead-mixes (about 1/200th per well) were added to 96 well plates containing 50 µl assay buffer (Blocking Reagent for ELISA (Roche, Rotkreuz, Switzerland) supplemented with 0.2% milk powder, 0.05% Tween-20 and 0.02% sodium azide) and different diluted antibodies were added to the wells. After overnight incubation at 15°C in a shaker, the bead-mixes were washed twice with PBST and species-specific PE-labelled (Phycoerythrin) secondary antibodies (Dianova, Hamburg, Germany) were added and incubated for 1 hour at 23°C.” left out
For quantification of the antibody specific signals, we used the DigiWest Analyzer software; it automatically identifies peaks of appropriate molecular weight and calculates the peak area. […]

C[C@@H]1COCCN1c1cc(C2([S@](C)(=N)=O)CC2)nc(-c2cc[nH]c3nccc2-3)n1 [AZD6738, ceralasertib]
PI3K-Akt signaling (KEGG pathway) [1]: upregulated | PI3K-Akt signaling (KEGG pathway) [2]: downregulated | p53 signaling (KEGG pathway) [2]: strongly upregulated | p16 [3]: accumulation | pCDK2 (Thr160) protein levels [3]: reduced | CDC25C and pHistH3 (Ser10) [4]: downregulated | Survivin (BIRC5) [4]: upregulated | p53, p21 and Bax [4]: upregulation | pAkt [4]: downregulation | anti-glioma activity in vitro [5]: significant anti-glioma activity | NF-κB ([6]; across both cell lines): significant upregulation | markers for ATR target engagement such as pATR, Chk2, and Ku80 ([6]; across both cell lines): significant reduction | Cleaved PARP ([6]; both cell lines): upregulated | pH2A.X ([6]; both cell lines): Upregulation
